Assay results taken from patent US10981917B2, “Heterocyclic compound, its preparation method, and pharmaceutical composition comprising the same” (Daewoong Pharmaceutical Co., Ltd., priority 2017, dated 2021).

Each compound was assayed against PRS (prolyl-tRNA synthetase) protein, PRS portion of EPRS (Homo sapiens (Human), UniProt P07814) (assay: PRS enzyme activity inhibition experiment ([3H]proline, liquid scintillation)). Conditions: purified PRS protein, 37° C. for 5 to 10 minutes.
Type: biochemical
Description: In order to confirm the biological activities of the compounds prepared in Examples, % inhibition or IC50 values of PRS enzyme ([…]) activities were calculated.
Specifically, the portion corresponding to PRS in cDNA of EPRS was subcloned, and the obtained high-purity PRS protein was purified and used in the experiment. The compounds (1 μM) prepared in Examples were added into the reaction buffer (20 mM KPO4 (pH 7.4), 6 mM MgAc, 5 mM ATP, […] tRNA, 0.5 mM DTT, […][^3H]proline (1 mCi/mL)) and allowed to react at 37° C. for 5 to 10 minutes. The reaction was terminated with 3M paper that was in advance dried by addition of 5% TCA. The radioactivity was measured using a liquid scintillation counter.
% Inhibition and IC50 values of the respective compounds were calculated and analyzed using Microsoft Excel or Sigma Plot 8.0. In Tables 1 to 3, the results are divided into A, B and C according to the range of IC50. The case where the derived IC50 is 100 nM or less is represented by “A”, the case where the IC50 is 100 to 500 nM is represented by “B”, and the case where the IC50 is 500 nM or higher is represented by “C”.

Sequence of PRS (prolyl-tRNA synthetase) protein, PRS portion of EPRS (P07814 1007-1512): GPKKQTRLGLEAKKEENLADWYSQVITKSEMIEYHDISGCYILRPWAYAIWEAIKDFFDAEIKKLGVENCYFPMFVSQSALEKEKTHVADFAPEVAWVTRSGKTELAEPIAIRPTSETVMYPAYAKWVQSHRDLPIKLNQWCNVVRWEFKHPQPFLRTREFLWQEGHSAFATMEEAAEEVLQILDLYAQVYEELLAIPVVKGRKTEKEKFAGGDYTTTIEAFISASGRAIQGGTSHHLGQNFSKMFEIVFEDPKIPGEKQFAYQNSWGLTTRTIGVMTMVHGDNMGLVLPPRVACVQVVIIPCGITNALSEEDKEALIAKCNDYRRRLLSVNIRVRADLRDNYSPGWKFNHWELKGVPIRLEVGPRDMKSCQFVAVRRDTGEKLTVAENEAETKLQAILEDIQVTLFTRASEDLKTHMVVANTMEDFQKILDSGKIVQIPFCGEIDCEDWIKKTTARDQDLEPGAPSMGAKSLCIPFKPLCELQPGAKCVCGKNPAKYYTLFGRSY

O[C@H]1CCCN[C@@H]1CCCn1cnc2cc(C(F)(F)F)cc(-c3cccc(F)c3)c21 [Example 84, (2R,3S)-2-(3-(7-(3-fluorophenyl)-5-(trifluoromethyl)-1H-benzo[d]imidazol-1-yl)propyl)piperidin-3-ol] and O[C@H]1CCCN[C@@H]1CCCn1cnc2cc(Cl)cc(-c3cncc(F)c3)c21 [Example 87, (2R,3S)-2-(3-(5-chloro-7-(5-fluoropyridin-3-yl)-1H-benzo[d]imidazol-1-yl)propyl)piperidin-3-ol] cannot be ordered by IC50: at least 500 nM for the first, 100 to 500 nM for the second.

Cc1ncc(-c2cc(Cl)cc3ncn(CCC[C@H]4NCCC[C@@H]4O)c23)s1 [Example 85, (2R,3S)-2-(3-(5-chloro-7-(2-methylthiazol-5-yl)-1H-benzo[d]imidazol-1-yl)propyl)piperidin-3-ol] and O[C@H]1CCCN[C@@H]1CCCn1cnc2cc(Cl)cc(-c3cnc(C4CC4)s3)c21 [Example 100, (2R,3S)-2-(3-(5-chloro-7-(2-cyclopropylthiazol-5-yl)-1H-benzo[d]imidazol-1-yl)propyl)piperidin-3-ol] fall in the same range of IC50: 100 to 500 nM for the first, 100 to 500 nM for the second.

O[C@H]1CCCN[C@@H]1CCCn1cnc2cc(Cl)cc(-c3cccnc3)c21 [Example 86, (2R,3S)-2-(3-(5-chloro-7-(pyridin-3-yl)-1H-benzo[d]imidazol-1-yl)propyl)piperidin-3-ol] and O[C@H]1CCCN[C@@H]1CCCn1cnc2cc(Cl)cc(-c3ccsc3)c21 [Example 91, (2R,3S)-2-(3-(5-chloro-7-(thiophen-3-yl)-1H-benzo[d]imidazol-1-yl)propyl)piperidin-3-ol] cannot be ordered by IC50: 100 to 500 nM for the first, at most 100 nM for the second.

Compared with Cn1cc(-c2cc(Cl)cc3ncn(CCC[C@H]4NCCC[C@@H]4O)c23)ccc1=O [Example 88, 5-(5-chloro-1-(3-((2R,3S)-3-hydroxypiperidin-2-yl)propyl)-1H-benzo[d]imidazol-7-yl)-1-methylpyridin-2(1H)-one], Cn1cc(-c2cc(Cl)cc3ncn(CCC[C@H]4NCCC[C@@H]4O)c23)cn1 [Example 97, (2R,3S)-2-(3-(5-chloro-7-(1-methyl-1H-pyrazol-4-yl)-1H-benzo[d]imidazol-1-yl)propyl)piperidin-3-ol] is lower in IC50: at least 500 nM for the first, at most 100 nM for the second.

O[C@H]1CCCN[C@@H]1CCCn1cnc2cc(Cl)cc(-c3cnn(C(F)F)c3)c21 [Example 89, (2R,3S)-2-(3-(5-chloro-7-(1-(difluoromethyl)-1H-pyrazol-4-yl)-1H-benzo[d]imidazol-1-yl)propyl)piperidin-3-ol] and CC(C)n1cc(-c2cc(Cl)cc3ncn(CCC[C@H]4NCCC[C@@H]4O)c23)cn1 [Example 108, (2R,3S)-2-(3-(5-chloro-7-(1-isopropyl-1H-pyrazol-4-yl)-1H-benzo[d]imidazol-1-yl)propyl)piperidin-3-ol] cannot be ordered by IC50: at most 100 nM for the first, 100 to 500 nM for the second.

O[C@H]1CCCN[C@@H]1CCCn1cnc2cc(Cl)cc(-c3ccon3)c21 [Example 90, (2R,3S)-2-(3-(5-chloro-7-(Isoxazol-3-yl)-1H-benzo[d]imidazol-1-yl)propyl)piperidin-3-ol] and O[C@H]1CCCN[C@@H]1CCCn1cnc2cc(Cl)cc(-c3ccoc3)c21 [Example 104, (2R,3S)-2-(3-(5-chloro-7-(furan-3-yl)-1H-benzo[d]imidazol-1-yl)propyl)piperidin-3-ol] cannot be ordered by IC50: 100 to 500 nM for the first, at most 100 nM for the second.

Cc1sccc1-c1cc(Cl)cc2ncn(CCC[C@H]3NCCC[C@@H]3O)c12 [Example 92, (2R,3S)-2-(3-(5-chloro-7-(2-methylthiophen-3-yl)-1H-benzo[d]imidazol-1-yl)propyl)piperidin-3-ol] and Cc1cscc1-c1cc(Cl)cc2ncn(CCC[C@H]3NCCC[C@@H]3O)c12 [Example 109, (2R,3S)-2-(3-(5-chloro-7-(4-methylthiophen-3-yl)-1H-benzo[d]imidazol-1-yl)propyl)piperidin-3-ol] cannot be ordered by IC50: 100 to 500 nM for the first, at most 100 nM for the second.

Cc1noc(C)c1-c1cc(Cl)cc2ncn(CCC[C@H]3NCCC[C@@H]3O)c12 [Example 93, (2R,3S)-2-(3-(5-chloro-7-(3,5-dimethylisoxazol-4-yl)-1H-benzo[d]imidazol-1-yl)propyl)piperidin-3-ol] and Cc1cc(-c2cc(Cl)cc3ncn(CCC[C@H]4NCCC[C@@H]4O)c23)c(C)s1 [Example 114, (2R,3S)-2-(3-(5-chloro-7-(2,5-dimethylthiophen-3-yl)-1H-benzo[d]imidazol-1-yl)propyl)piperidin-3-ol] cannot be ordered by IC50: at least 500 nM for the first, 100 to 500 nM for the second.

O[C@H]1CCCN[C@@H]1CCCn1cnc2cc(Cl)cc(C3=CCOCC3)c21 [Example 94, (2R,3S)-2-(3-(5-chloro-7-(3,6-dihydro-2H-pyran-4-yl)-1H-benzo[d]imidazol-1-yl)propyl)piperidin-3-ol] and O[C@H]1CCCN[C@@H]1CCCn1cnc2cc(Cl)cc(-c3cnn(C4COC4)c3)c21 [Example 102, (2R,3S)-2-(3-(5-chloro-7-(1-(oxetan-3-yl)-1H-pyrazol-4-yl)-1H-benzo[d]imidazol-1-yl)propyl)piperidin-3-ol] fall in the same range of IC50: 100 to 500 nM for the first, 100 to 500 nM for the second.

O[C@H]1CCCN[C@@H]1CCCn1cnc2cc(Cl)cc(-c3cnn(CC4OCCO4)c3)c21 [Example 95, (2R,3S)-2-(3-(7-(1-((1,3-dioxolan-2-yl)methyl)-1H-pyrazol-4-yl)-5-chloro-1H-benzo[d]imidazol-1-yl)propyl)piperidin-3-ol] and O[C@H]1CCCN[C@@H]1CCCn1cnc2cc(Cl)cc(-c3cnn(CCF)c3)c21 [Example 112, (2R,3S)-2-(3-(5-chloro-7-(1-(2-fluoroethyl)-1H-pyrazol-4-yl)-1H-benzo[d]imidazol-1-yl)propyl)piperidin-3-ol] fall in the same range of IC50: 100 to 500 nM for the first, 100 to 500 nM for the second.

Cn1cncc1-c1cc(Cl)cc2ncn(CCC[C@H]3NCCC[C@@H]3O)c12 [Example 96, (2R,3S)-2-(3-(5-chloro-7-(1-methyl-1H-imidazol-5-yl)-1H-benzo[d]imidazol-1-yl)propyl)piperidin-3-ol] and CCCCn1cc(-c2cc(Cl)cc3ncn(CCC[C@H]4NCCC[C@@H]4O)c23)cn1 [Example 113, (2R,3S)-2-(3-(7-(1-butyl-1H-pyrazol-4-yl)-5-chloro-1H-benzo[d]imidazol-1-yl)propyl)piperidin-3-ol] cannot be ordered by IC50: at least 500 nM for the first, 100 to 500 nM for the second.

O[C@H]1CCCN[C@@H]1CCCn1cnc2cccc(N3CCCC3)c21 [Example 98, (2R,3S)-2-(3-(7-(pyrrolidin-1-yl)-1H-benzo[d]imidazol-1-yl)propyl)piperidin-3-ol] and O[C@H]1CCCN[C@@H]1CCCn1cnc2cc(Cl)cc(N3CCCC3)c21 [Example 99, (2R,3S)-2-(3-(5-chloro-7-(pyrrolidin-1-yl)-1H-benzo[d]imidazol-1-yl)propyl)piperidin-3-ol] cannot be ordered by IC50: 100 to 500 nM for the first, at most 100 nM for the second.

O[C@H]1CCCN[C@@H]1CCCn1cnc2cc(Cl)cc(-c3cnn(-c4nccs4)c3)c21 [Example 101, (2R,3S)-2-(3-(5-chloro-7-(1-(thiazol-2-yl)-1H-pyrazol-4-yl)-1H-benzo[d]imidazol-1-yl)propyl)piperidin-3-ol] and CC(C)(C)n1cc(-c2cc(Cl)cc3ncn(CCC[C@H]4NCCC[C@@H]4O)c23)cn1 [Example 106, (2R,3S)-2-(3-(7-(1-(tert-butyl)-1H-pyrazol-4-yl)-5-chloro-1H-benzo[d]imidazol-1-yl)propyl)piperidin-3-ol] cannot be ordered by IC50: at most 100 nM for the first, 100 to 500 nM for the second.

O[C@H]1CCCN[C@@H]1CCCn1cnc2cc(Cl)cc(-c3csc(C4CCOCC4)n3)c21 [Example 103, (2R,3S)-2-(3-(5-chloro-7-(2-(tetrahydro-2H-pyran-4-yl)thiazol-4-yl)-1H-benzo[d]imidazol-1-yl)propyl)piperidin-3-ol] and N#Cc1nc(-c2cc(Cl)cc3ncn(CCC[C@H]4NCCC[C@@H]4O)c23)cs1 [Example 105, 4-(5-chloro-1-(3-((2R,3S)-3-hydroxypiperidin-2-yl)propyl)-1H-benzo[d]imidazol-7-yl)thiazole-2-carbonitrile] cannot be ordered by IC50: at least 500 nM for the first, at least 500 nM for the second.

CC(C)CCn1cc(-c2cc(Cl)cc3ncn(CCC[C@H]4NCCC[C@@H]4O)c23)cn1 [Example 107, (2R,3S)-2-(3-(5-chloro-7-(1-isopentyl-1H-pyrazol-4-yl)-1H-benzo[d]imidazol-1-yl)propyl)piperidin-3-ol] and CC(C)Cn1cc(-c2cc(Cl)cc3ncn(CCC[C@H]4NCCC[C@@H]4O)c23)cn1 [Example 115, (2R,3S)-2-(3-(5-chloro-7-(1-isobutyl-1H-pyrazol-4-yl)-1H-benzo[d]imidazol-1-yl)propyl)piperidin-3-ol] fall in the same range of IC50: 100 to 500 nM for the first, 100 to 500 nM for the second.

First: CCOC(=O)c1occc1-c1cc(Cl)cc2ncn(CCC[C@H]3NCCC[C@@H]3O)c12 [Example 110, ethyl 3-(5-chloro-1-(3-((2R,3S)-3-hydroxypiperidin-2-yl)propyl)-1H-benzo[d]imidazol-7-yl)furan-2-carboxylate]
Second: CCOC(=O)c1cc(-c2cc(Cl)cc3ncn(CCC[C@H]4NCCC[C@@H]4O)c23)cn1C [Example 116, ethyl 4-(5-chloro-1-(3-((2R,3S)-3-hydroxypiperidin-2-yl)propyl)-1H-benzo[d]imidazol-7-yl)-1-methyl-1H-pyrrole-2-carboxylate]
The IC50 of the first is higher: at least 500 nM for the first, at most 100 nM for the second.

Compound COC(=O)c1cc(-c2cc(Cl)cc3ncn(CCC[C@H]4NCCC[C@@H]4O)c23)cs1 [Example 111, methyl 4-(5-chloro-1-(3-((2R,3S)-3-hydroxypiperidin-2-yl)propyl)-1H-benzo[d]imidazol-7-yl)thiophene-2-carboxylate] has an IC50 of at most 100 nM.
